According to patent publication US20130317040A1, “METHODS FOR TREATING SYSTEMIC LUPUS ERYTHEMATOSUS USING HIV PROTEASE INHIBITORS” (The Feinstein Institute of Medical Research, priority 2010, published 2013):

Assays:
[1] = test system: lupus anti-dsDNA monoclonal antibody, R4A; test: Competitive ELISA, R4A binding to bound DWEYS peptide; design: species or system mouse; settings: for inhibition of R4A binding, DWEYS: competitive ELISA, bound D-DWEYS, at the most effective concentration of compound; for inhibition of R4A binding to D-DWEYS-5 peptide on ELISAs: R4A 2 μg/ml, 1 μM, 10 μM and 100 μM, highest concentrations showed the greatest inhibition
Method: (§1) To test whether these antiviral drugs might inhibit R4A binding, competitive ELISAs, with bound DWEYS peptide, bound dsDNA, or bound C1q protein, were performed. […] Activity in these ELISAs is predictive of binding activity with naturally occurring anti-dsDNA antibodies in lupus patients.
(§2) ELISAs. […] Antigens were absorbed to microtiter plate wells (either D-DWEYS (20 μg/ml) in PBS, calf thymus DNA (100 μg/ml) in NaHCO3 (0.1M, pH 8.6) or full length complement component C1q (10-20 μg/ml) in PBS) overnight at 37° C. […] The competitive ELISA was performed as described, using R4A monoclonal antibodies (2-20 μg/ml). […] The plates were washed and alkaline phosphatase-conjugated goat anti-mouse IgG antibody was added for 1 h at 37° C.

[2] = test system: lupus anti-dsDNA monoclonal antibody, R4A; test: Competitive ELISA, R4A binding to bound C1q protein; design: species or system mouse; settings: at the most effective concentration of compound
Method: as §1, §2

[3] = test system: lupus anti-dsDNA monoclonal antibody, R4A; test: Competitive ELISA, R4A binding to bound dsDNA (calf thymus DNA); design: species or system mouse; settings: for inhibition of R4A binding, DNA: competitive ELISA, bound calf thymus DNA, at the most effective concentration of compound
Method: as §1, §2

[4] = test system: mouse monoclonal anti-dsDNA antibody, R4A; test: Deposition of R4A to kidney glomeruli ex vivo; format: binding; settings: detected with fluorescently-labeled secondary antibody
Source text: Nephrotoxicity: nelfinavir was also found to suppress pathologic deposition of mouse monoclonal anti-dsDNA antibody, […], to kidney glomeruli ex vivo. […] For methodology see Bloom, O. et al., (2011), PNAS 108:10255-10259 and Zhang, J. et al., (2009), J. Autoimmun. 33:270-274.

[5] = in vivo; cited from earlier work
[6] = test system: lupus patient sera components binding to DNA (anti-dsDNA antibodies); test: ELISA, lupus patient sera binding to DNA; design: species or system human; settings: compound at 1, 10 and 100 micromolar; sera from lupus patients with elevated anti-dsDNA titers
Source text: In early tests, inhibition of lupus patient sera components binding to DNA by nelfinavir was observed (data not shown). Sera, collected from lupus patients with moderately active disease and elevated titers of anti-dsDNA antibodies, was used for an ELISA assay for binding to DNA. The addition of nelfinavir in micromolar concentrations of 1, 10 and 100 decreased DNA binding by an average of 43%.

[7] = test system: R4A-induced apoptosis in the central nervous system; test: R4A-induced neurotoxicity in vivo, hippocampal injection, TUNEL staining; settings: R4A pre-incubated with inhibitor 15 min at 37° C., injected into hippocampus; brain slices after 48 hours
Method: Neurotoxicity: protection from R4A-induced apoptosis in the central nervous system was assessed by TUNEL staining. […] R4A was pre-incubated with vehicle or HIV protease inhibitors for 15 min. at 37° C. The preparation was then stereotaxically injected into the hippocampus of test animals. After 48 hours, brain slices at the injection site were subjected to TUNEL staining. […] For methodology see Bloom, O. et al., (2011), supra, and Zhang, J. et al., (2009), supra.

cytochrome P-450 enzymes = settings: cited from earlier work
[8] = R4A 5 μg/ml, compound at 25 μM and 50 μM

| Compound | inhibition of R4A binding, DWEYS [1] | inhibition of R4A binding, C1q assay [2] | inhibition of R4A binding, DNA [3] | inhibition of R4A binding to D-DWEYS-5 peptide on ELISAs [1] | R4A binding (deposition) to kidney glomeruli ex vivo [4] | time until steady state of the drug is achieved [5] | decrease of lupus patient sera DNA binding (average) [6] | inhibition of R4A binding to DWEYS peptide on ELISAs [1, 8] | protection from R4A neurotoxicity (TUNEL staining) [7] | metabolizing cytochrome P-450 enzymes (cytochrome P-450 enzymes) | inhibition of R4A binding to DNA on ELISAs [3, 8] |
| --- | --- | --- | --- | --- | --- | --- | --- | --- | --- | --- | --- |
| CC(C)(C)NCC1CC2CCCCC2CN1CC(O)C(Cc1ccccc1)NCC(CCN)NCC1Nc2ccccc2CC1O (stereo not shown) [12W, 2-((4-amino-1-(4-(3-((tert-butylamino)methyl)octahydroisoquinolin-2(1H)-yl)-3-hydroxy-1-phenylbutan-2-ylamino)butan-2-ylamino)methyl)-1,2,3,4-tetrahydroquinolin-3-ol] | 31% | 18% | 32% |  |  |  |  |  |  |  |  |
| COC(=O)N[C@H](C(=O)N[C@@H](Cc1ccccc1)[C@@H](O)CN(Cc1ccc(-c2ccccn2)cc1)NC(=O)[C@@H](NC(=O)OC)C(C)(C)C)C(C)(C)C [Atazanavir, atazanavir] | 46% | 64% | 38% | improved inhibition | only nelfinavir decreased |  |  |  |  |  |  |
| CC(C)CN(C[C@@H](O)[C@H](Cc1ccccc1)NC(=O)O[C@H]1CO[C@H]2OCC[C@H]21)S(=O)(=O)c1ccc(N)cc1 [Darunavir, darunavir] | 16% | 0% | 3% |  |  |  |  |  |  |  |  |
| Cc1cccc(C)c1OCC(=O)N[C@@H](Cc1ccccc1)[C@@H](O)C[C@H](Cc1ccccc1)NC(=O)[C@H](C(C)C)N1CCCNC1=O [Lopinavir, lopinavir] | 56% | 38% | 32% | improved inhibition | only nelfinavir decreased |  |  |  |  |  |  |
| CC(C)c1nc(CN(C)C(=O)N[C@H](C(=O)N[C@@H](Cc2ccccc2)C[C@H](O)[C@H](Cc2ccccc2)NC(=O)OCc2cncs2)C(C)C)cs1 [Ritonavir, ritonavir] | 8% | 13% | 0% |  |  |  |  |  |  |  |  |
| CC(C)(C)NC(=O)[C@@H]1C[C@@H]2CCCC[C@@H]2CN1C[C@@H](O)[C@H](Cc1ccccc1)NC(=O)[C@H](CC(N)=O)NC(=O)c1ccc2ccccc2n1 [Saquinavir, saquinavir] | 33% | 54% | 31% | improved inhibition | only nelfinavir decreased |  |  |  |  |  |  |
| Cc1c(O)cccc1C(=O)N[C@@H](CSc1ccccc1)[C@H](O)CN1C[C@H]2CCCC[C@H]2C[C@H]1C(=O)NC(C)(C)C [nelfinavir] |  |  |  |  | decreased the R4A binding | 6 days | 43% | Significant inhibition | block neurotoxicity | CYP3A4, CYP2C19, CYP2C9, and CYP2D6 | Significant inhibition |
